# Laboratory results: patent US8143307B2, “Benzothiophen-2-carbonylguanidine derivatives, preparation thereof, and pharmaceutical composition containing the same” (Korea Research Institute of Chemical Technology, priority 2004, dated 2012)
# Molecular target: T1, Human NHE-1 (Homo sapiens, UniProt P19634)
# T1 construct: expressed in transfected cells; host or cells: CCL39-derived PS120 cells (PS120/NHE-1)
# Test: Inhibitory effect on NHE-1 in PS120/NHE-1 cells (recovery from intracellular acidosis, BCECF fluorescence)
# Format: cell-based
# Details: human NHE-1 expressed PS120 cells; concentration at which recovery from intracellular acidosis was 50% inhibited
# Description: The benzothiophen-2-carbonylguanidine derivatives of the present invention were examined for NHE-1 inhibitory effect in cells according to the following procedure.
# Human NHE-1 was expressed in CCL39-derived PS120 cells. These human NHE-1 expressed cells were cultured in DMEM (Dulbecco's modified Eagle's medium) supplemented with 10% fetal bovine serum, 1% penicillin/streptomycin (100× solution), 1% L-glutamine (200 mM aqueous solution). The PS120/NHE-1 cells grown in 100 mm dishes were treated with trypsin at 80-90% confluency, followed by washing with PBS (phosphate buffer saline) once, and then once with an Na-free buffer (138.2 mM Choline chloride, 4.9 mM KCl, […]. 2H2O, 1.2 mM MgSO4.7H2O, 1.2 mM KH2PO4, 15 mM D-glucose, 20 mM HEPES, at pH 7.4). After centrifugation, the pellet was suspended in an Na-free buffer containing 20 mM NH4Cl and 10 μM BCECF-AM [2′,7′-bis(2-carboxyethyl)-5,6-carboxy-fluorescein acetoxymethyl ester] and incubated at 37° C. for 30 min in a CO2 incubator. After being harvested by centrifugation, the PS120/NHE-1 cells were washed once with an Na-free buffer to remove both NH4Cl and extracellular BCECF-AM, suspended at a density of 2.5×10^4 cells/10 μl and stored at 4° C. in a dark room until reuse. In each well of 96-well microplates, 180 μl of HBS (137 mM NaCl, 4.9 mM KCl, 1.5 mM CaCl2. 2H2O, 1.2 mM MgSO4.7H2O, 1.2 mM KH2PO4, 15 mM D-glucose, 20 mM HEPES, at pH 7.4) and 10 μl of DMSO or 10 μl of a solution of the compound (0.03˜10 μM) of the present invention in DMSO were placed and well mixed, after which 10 μl aliquots of the intracellular acidosis-induced PS120/NHE-1 cells were added thereto. 4 min after the cell addition, fluorescence (excitation: 485/444 nm, emission: 535 nm) was measured in the GEMINI-XS Microplate Spectrofluorometer (Molecular Devices). The fluorescence measured was converted into pH values using a high-K^+/nigericin technique. The cells in which intracellular acidosis was induced with NH4Cl prepulses, were recovered to normal pH values through the operation of NHE-1. The inhibitory effect of the compound against NHE-1 was evaluated as concentrations at which the recovery from the intracellular acidosis to a normal state was 50% inhibited (IC50 values), with cariporide used as a control.
# T1 sequence (P19634 whole entry): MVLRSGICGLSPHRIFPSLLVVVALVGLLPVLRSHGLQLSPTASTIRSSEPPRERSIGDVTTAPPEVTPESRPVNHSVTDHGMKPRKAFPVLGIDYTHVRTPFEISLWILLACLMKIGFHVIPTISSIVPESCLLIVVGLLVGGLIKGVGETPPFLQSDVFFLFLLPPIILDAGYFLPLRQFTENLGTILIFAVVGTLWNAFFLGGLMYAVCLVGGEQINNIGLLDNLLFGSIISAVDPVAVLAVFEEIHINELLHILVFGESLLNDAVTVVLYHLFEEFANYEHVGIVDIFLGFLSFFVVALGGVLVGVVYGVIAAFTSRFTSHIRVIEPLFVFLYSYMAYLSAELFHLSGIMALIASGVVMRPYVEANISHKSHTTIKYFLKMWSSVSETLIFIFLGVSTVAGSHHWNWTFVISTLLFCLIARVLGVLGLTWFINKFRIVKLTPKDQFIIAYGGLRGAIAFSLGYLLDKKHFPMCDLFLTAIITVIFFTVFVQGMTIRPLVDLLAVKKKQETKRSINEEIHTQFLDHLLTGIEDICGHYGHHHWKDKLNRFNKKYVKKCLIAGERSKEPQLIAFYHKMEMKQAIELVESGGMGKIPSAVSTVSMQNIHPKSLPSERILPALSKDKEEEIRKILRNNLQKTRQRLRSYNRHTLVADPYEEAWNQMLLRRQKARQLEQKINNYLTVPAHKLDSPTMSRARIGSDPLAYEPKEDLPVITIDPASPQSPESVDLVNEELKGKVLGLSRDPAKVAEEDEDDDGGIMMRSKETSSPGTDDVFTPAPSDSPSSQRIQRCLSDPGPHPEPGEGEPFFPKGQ
row,SMILES,IC50 [µM]
1,"N=C(N)NC(=O)c1cc2c(Br)cccc2s1 [Example 1, (4-Bromobenzothiophene-2-Carbonyl)Guanidine Methanesulfonate]",< 0.5
2,"NC(N)=NC(=O)c1cc2c(-c3cccc(Cl)c3)cccc2s1 [Example 3, [4-(3-Chlorophenyl)Benzothiophene-2-Carbonyl]Guanidine Methanesulfonate]",2.52
3,"N=C(N)NC(=O)c1cc2c(-c3ccc(Cl)cc3)cccc2s1 [Example 4, [4-(4-Chlorophenyl)Benzothiophene-2-Carbonyl]Guanidine Methanesulfonate]",> 30
4,"N=C(N)NC(=O)c1cc2c(-c3ccccc3F)cccc2s1 [Example 5, [4-(2-Fluorophenyl)Benzothiophene-2-Carbonyl]Guanidine Methanesulfonate]",10.5
5,"NC(N)=NC(=O)c1cc2c(-c3cccc(F)c3)cccc2s1 [Example 6, [4-(3-Fluorophenyl)Benzothiophene-2-Carbonyl]Guanidine Methanesulfonate]",5.62
6,"NC(N)=NC(=O)c1cc2c(-c3ccc(F)cc3)cccc2s1 [Example 7, [4-(4-Fluorophenyl)Benzothiophene-2-Carbonyl]Guanidine Methanesulfonate]",3.9
7,"COc1ccccc1-c1cccc2sc(C(=O)N=C(N)N)cc12 [Example 11, [4-(2-Methoxyphenyl)Benzothiophene-2-Carbonyl]Guanidine Methanesulfonate]",> 30
8,"COc1cccc(-c2cccc3sc(C(=O)N=C(N)N)cc23)c1 [Example 12, [4-(3-Methoxyphenyl)Benzothiophene-2-Carbonyl]Guanidine Methanesulfonate]",10.7
9,"NC(N)=NC(=O)c1cc2c(-c3ccccc3C(F)(F)F)cccc2s1 [Example 14, [4-(2-Trifluoromethylphenyl)Benzothiophene-2-Carbonyl]Guanidine Methanesulfonate]",> 30
10,"NC(N)=NC(=O)c1cc2c(-c3cccc(C(F)(F)F)c3)cccc2s1 [Example 15, [4-(3-Trifluoromethylphenyl)Benzothiophene-2-Carbonyl]Guanidine Methanesulfonate]",4.39
11,"NC(N)=NC(=O)c1cc2c(-c3cccc4ccccc34)cccc2s1 [Example 18, [4-(1-Naphthalenyl)Benzothiophene-2-Carbonyl]Guanidine Methanesulfonate]",> 30
12,"NC(N)=NC(=O)c1cc2c(-c3cc(Cl)ccc3Cl)cccc2s1 [Example 20, [4-(2,5-Dichlorophenyl)Benzothiophene-2-Carbonyl]Guanidine]",> 30
13,"NC(N)=NC(=O)c1cc2c(-c3cccc(Cl)c3Cl)cccc2s1 [Example 21, [4-(2,3-Dichlorophenyl)Benzothiophene-2-Carbonyl]Guanidine Methanesulfonate]",> 30
14,"N=C(N)NC(=O)c1cc2c(-c3ccc(F)c(Cl)c3)cccc2s1 [Example 23, [4-(3-Chloro-4-Fluorophenyl)Benzothiophene-2-Carbonyl]Guanidine Methanesulfonate]",< 3
15,"NC(N)=NC(=O)c1cc2c(-c3cc(F)cc(F)c3)cccc2s1 [Example 24, [4-(3,5-Difluorophenyl)Benzothiophene-2-Carbonyl]Guanidine Methanesulfonate]",5.1
16,"NC(N)=NC(=O)c1cc2c(-c3cc(F)ccc3F)cccc2s1 [Example 25, [4-(2,5-Difluorophenyl)Benzothiophene-2-Carbonyl]Guanidine Methanesulfonate]",8.57
17,"NC(N)=NC(=O)c1cc2c(-c3cccc(F)c3F)cccc2s1 [Example 26, [4-(2,3-Difluorophenyl)Benzothiophene-2-Carbonyl]Guanidine Methanesulfonate]",8.93
18,"Cc1ccc(F)c(-c2cccc3sc(C(=O)N=C(N)N)cc23)c1 [Example 29, [4-(2-Fluoro-5-Methylphenyl)Benzothiophene-2-Carbonyl]Guanidine Methanesulfonate]",6.69
19,"Cc1cc(C)cc(-c2cccc3sc(C(=O)N=C(N)N)cc23)c1 [Example 30, [4-(3,5-Dimethylphenyl)Benzothiophene-2-Carbonyl]Guanidine Methanesulfonate]",> 30
20,"Cc1ccc(C)c(-c2cccc3sc(C(=O)N=C(N)N)cc23)c1 [Example 31, [4-(2,5-Dimethylphenyl)Benzothiophene-2-Carbonyl]Guanidine Methanesulfonate]",10.1
21,"N=C(N)NC(=O)c1cc2c(Cl)cccc2s1 [Example 32, (4-Chlorobenzothiophene-2-Carbonyl)Guanidine Methanesulfonate]",< 0.5
22,"CC(C)c1cccc2sc(C(=O)N=C(N)N)cc12 [Example 38, (4-Isopropylbenzothiophene-2-Carbonyl)Guanidine Methanesulfonate]",0.85

# Second part, the compound after the results:
row,IC50 [µM],SMILES
1,4.15,"N=C(N)NC(=O)c1cc2c(-c3ccccc3Cl)cccc2s1 [Example 2, [4-(2-Chlorophenyl)Benzothiophene-2-Carbonyl]Guanidine Methanesulfonate]"
2,< 3,"N=C(N)NC(=O)c1cc2c(-c3cccc(Cl)c3)cccc2s1 [Example 3, [4-(3-Chlorophenyl)Benzothiophene-2-Carbonyl]Guanidine Methanesulfonate]"
3,7.66,"Cc1ccccc1-c1cccc2sc(C(=O)N=C(N)N)cc12 [Example 8, [4-(2-Methylphenyl)Benzothiophene-2-Carbonyl]Guanidine Methanesulfonate]"
4,3.37,"Cc1cccc(-c2cccc3sc(C(=O)N=C(N)N)cc23)c1 [Example 9, [4-(3-Methylphenyl)Benzothiophene-2-Carbonyl]Guanidine Methanesulfonate]"
5,> 30,"Cc1ccc(-c2cccc3sc(C(=O)N=C(N)N)cc23)cc1 [Example 10, [4-(4-Methylphenyl)Benzothiophene-2-Carbonyl]Guanidine Methanesulfonate]"
6,> 30,"COc1ccc(-c2cccc3sc(C(=O)N=C(N)N)cc23)cc1 [Example 13, [4-(4-Methoxyphenyl)Benzothiophene-2-Carbonyl]Guanidine Methanesulfonate]"
7,> 30,"NC(N)=NC(=O)c1cc2c(-c3ccc(C(F)(F)F)cc3)cccc2s1 [Example 16, [4-(4-Trifluoromethylphenyl)Benzothiophene-2-Carbonyl]Guanidine Methanesulfonate]"
8,< 3,"N=C(N)NC(=O)c1cc2c(-c3cc(Cl)cc(Cl)c3)cccc2s1 [Example 19, [4-(3,5-Dichlorophenyl)Benzothiophene-2-Carbonyl]Guanidine Methanesulfonate]"
9,> 30,"COc1ccc(Cl)cc1-c1cccc2sc(C(=O)N=C(N)N)cc12 [Example 22, [4-(2-Methoxy-5-Chlorophenyl)Benzothiophene-2-Carbonyl]Guanidine Methanesulfonate]"
10,3.62,"NC(N)=NC(=O)c1cc2c(-c3ccc(F)c(F)c3)cccc2s1 [Example 27, [4-(3,4-Difluorophenyl)Benzothiophene-2-Carbonyl]Guanidine Methanesulfonate]"
11,4.79,"Cc1ccc(F)cc1-c1cccc2sc(C(=O)N=C(N)N)cc12 [Example 28, [4-(2-Methyl-5-Fluorophenyl)Benzothiophene-2-Carbonyl]Guanidine Methanesulfonate]"
12,< 0.5,"C=Cc1cccc2sc(C(=O)NC(=N)N)cc12 [Example 36, (4-Vinylbenzothiophene-2-Carbonyl)Guanidine Methanesulfonate]"
